Data as given in patent US20100056507A1, “PHENYL DERIVATIVES AND THEIR USE AS A MEDICAMENT” (IPSEN PHARMA S.A.S., priority 2006, published 2010).
Like-named read-outs stand apart in the source and are kept apart here.

Target: T1, human CB2 receptors (Homo sapiens, UniProt P34972)
T1 construct: expressed in transfected cells; membranes used
Assay: Affinity for the human CB2 cannabinoid receptors: inhibition of [3H]-CP55940 binding to transfected CHO-K1 cell membranes
Conditions: [3H]-CP55940 1 nM, CHO-K1 membranes expressing human CB2, Cheng-Prusoff correction
Description: The affinity of the compounds of the invention for the human CB2 receptors is determined by measuring the inhibition of the binding of [^3H]-CP55940 to transfected CHO-K1 cell membrane preparations.
The cells are collected with 0.5 mM of EDTA and centrifuged at 500 g for 5 minutes at 4° C. The pellet is re-suspended in phosphate buffered saline medium (PBS) and centrifuged at 500 g for 5 minutes at 4° C. The pellet is re-suspended in a Tris 50 mM buffer medium at pH 7.4 and centrifuged at 500 g for 5 minutes at 4° C. The cells are lysed by sonication and centrifuged at 39,000 g for 10 minutes at 4° C. The pellet is re-suspended in the Tris 50 mM buffer medium at pH 7.4 and centrifuged at 50,000 g for 10 minutes at 4° C. The membranes obtained in this last pellet are stored at −80° C.
Measurement of the competitive inhibition of the binding of the [^3H]-CP55940 to the CB2 receptors is carried out in duplicate using 96-well polypropylene plates. The cell membranes (10 μg of proteins/well) are incubated with the [^3H]-CP55940 (1 nM) for 60 minutes at 25° C. in a Tris-HCl 50 mM buffer medium, pH 7.4, comprising 0.1% bovine serum albumin (BSA), 5 mM of MgCl2, and 50 μg/ml of bacitracin.
The filters are washed with Tris-HCl 50 mM buffer, pH 7.4 at 0-4° C. and the radioactivity present is determined using a counter (Packard Top Count).
The specific binding is obtained by subtracting the non-specific binding (determined in the presence of 0.1 μM of WIN55212-2 from the total binding). The data are analyzed by computer-assisted non-linear regression (MDL). For each test, a Cheng-Prusoff correction is made in order to convert the IC50 to the inhibition constant, Ki.
where [L] is the concentration of the radioligand used in the test and Kd is the radioligand equilibrium disassociation constant.

T1 sequence (P34972 whole entry): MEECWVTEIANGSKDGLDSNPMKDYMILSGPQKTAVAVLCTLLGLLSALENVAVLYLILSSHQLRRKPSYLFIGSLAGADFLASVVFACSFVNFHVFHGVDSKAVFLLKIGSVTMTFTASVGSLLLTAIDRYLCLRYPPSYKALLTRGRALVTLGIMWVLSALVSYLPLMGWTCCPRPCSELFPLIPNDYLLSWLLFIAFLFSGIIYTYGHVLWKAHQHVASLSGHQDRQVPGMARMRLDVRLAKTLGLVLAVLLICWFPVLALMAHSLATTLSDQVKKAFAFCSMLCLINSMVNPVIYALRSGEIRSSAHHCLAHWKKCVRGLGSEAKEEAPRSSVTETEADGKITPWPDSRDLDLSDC

SMILES	Ki (read-out: Ki < 0.5 μM) [nM]	Ki (read-out: Ki < 5 μM) [nM]
CC(C)(C)C(=O)Nc1ccc(CCOC(=O)c2ccc3c(c2)C(C)(C)CCC3(C)C)cc1 [Example 57]	< 500	< 5000
CCCCC(=O)Nc1ccc(CCOC(=O)c2ccc3c(c2)C(C)(C)CCC3(C)C)cc1 [Example 60]	< 500	< 5000
C=CC(=O)Nc1ccc(CCOC(=O)c2ccc3c(c2)C(C)(C)CCC3(C)C)cc1 [Example 61]	< 500	< 5000
CC1(C)CCC(C)(C)c2cc(C(=O)OCCc3ccc(NC(=O)C4CCCC4)cc3)ccc21 [Example 64]	< 500	< 5000
CC1(C)CCC(C)(C)c2cc(C(=O)OCCc3ccc(NC(=O)CC4CCCC4)cc3)ccc21 [Example 66]	< 500	< 5000
CC1(C)CCC(C)(C)c2cc(C(=O)OCCc3ccc(NC(=O)Cc4cccs4)cc3)ccc21 [Example 68]	< 500	< 5000
CCCS(=O)(=O)Nc1ccc(CCOC(=O)c2ccc3c(c2)C(C)(C)CCC3(C)C)cc1 [Example 71]	< 500	< 5000
CC1(C)CCC(C)(C)c2cc(C(=O)OCCc3ccc(NS(=O)(=O)C4CC4)cc3)ccc21 [Example 72]	< 500	< 5000
CC(C)NC(=O)Nc1ccc(CCOC(=O)c2ccc3c(c2)C(C)(C)CCC3(C)C)cc1 [Example 73]	< 500	< 5000
CC(C)(C)NC(=O)Nc1ccc(CCOC(=O)c2ccc3c(c2)C(C)(C)CCC3(C)C)cc1 [Example 74]	< 500	< 5000
C=CCNC(=S)Nc1ccc(CCOC(=O)c2ccc3c(c2)C(C)(C)CCC3(C)C)cc1 [Example 78]	< 500	< 5000
CCC(C)NC(=O)Nc1ccc(CCOC(=O)c2ccc3c(c2)C(C)(C)CCC3(C)C)cc1 (stereo not drawn) [Example 82]	< 500	< 5000
CCCCNC(=O)Nc1ccc(CCOC(=O)c2ccc3c(c2)C(C)(C)CCC3(C)C)cc1 [Example 83]	< 500	< 5000
COCCC(=O)Nc1ccc(CCOC(=O)c2ccc3c(c2)C(C)(C)CCC3(C)C)cc1 [Example 86]	< 500	< 5000
CC1(C)CCC(C)(C)c2cc(C(=O)OCCc3ccc(NC(=O)C4CC45CCC5)cc3)ccc21 (stereo not drawn) [Example 90]	< 500	< 5000
CC1(C)CCC(C)(C)c2cc(C(=O)OCCc3ccc(NC(=O)CC4CC4)cc3)ccc21 [Example 91]	< 500	< 5000
CC1(C)CCC(C)(C)c2cc(C(=O)OCCc3ccc(NC(=O)Cc4ccco4)cc3)ccc21 [Example 93]	< 500	< 5000
CCC(C)C(=O)Nc1ccc(CCOC(=O)c2ccc3c(c2)C(C)(C)CCC3(C)C)cc1 (stereo not drawn) [Example 95]	< 500	< 5000
CC1(C)CCC(C)(C)c2cc(C(=O)OCCc3ccc(NC(=O)NC4CC4)cc3)ccc21 [Example 96]	< 500	< 5000
CC1(C)CCC(C)(C)c2cc(C(=O)OCCc3ccc(NC(=O)NC4CCC4)cc3)ccc21 [Example 97]	< 500	< 5000
CC1(C)CCC(C)(C)c2cc(-c3nc(CCc4ccc(NC(=O)C5CCC5)cc4)no3)ccc21 [Example 98]	< 500	< 5000

More lines, now with the values ahead:

Ki (read-out: Ki < 0.5 μM) [nM]	Ki (read-out: Ki < 5 μM) [nM]	SMILES
< 500	< 5000	CC(C)CC(=O)Nc1ccc(CCOC(=O)c2ccc3c(c2)C(C)(C)CCC3(C)C)cc1 [Example 58]
< 500	< 5000	CC(C)(C)CC(=O)Nc1ccc(CCOC(=O)c2ccc3c(c2)C(C)(C)CCC3(C)C)cc1 [Example 59]
< 500	< 5000	C=CCCC(=O)Nc1ccc(CCOC(=O)c2ccc3c(c2)C(C)(C)CCC3(C)C)cc1 [Example 62]
< 500	< 5000	CC1(C)CCC(C)(C)c2cc(C(=O)OCCc3ccc(NC(=O)C4CC4)cc3)ccc21 [Example 63]
< 500	< 5000	CC1(C)CCC(C)(C)c2cc(C(=O)OCCc3ccc(NC(=O)C4CCCCC4)cc3)ccc21 [Example 65]
< 500	< 5000	CC1(C)CCC(C)(C)c2cc(C(=O)OCCc3ccc(NC(=O)Cc4ccccc4)cc3)ccc21 [Example 67]
< 500	< 5000	CC1(C)CCC(C)(C)c2cc(C(=O)OCCc3ccc(NS(C)(=O)=O)cc3)ccc21 [Example 69, 2-{4-[(methylsulphonyl)amino]phenyl}ethyl 5,5,8,8-tetramethyl-5,6,7,8-tetrahydronaphthalene-2-carboxylate]
< 500	< 5000	CCS(=O)(=O)Nc1ccc(CCOC(=O)c2ccc3c(c2)C(C)(C)CCC3(C)C)cc1 [Example 70]
< 500	< 5000	CC1(C)CCC(C)(C)c2cc(C(=O)OCCc3ccc(NC(=O)NCc4ccco4)cc3)ccc21 [Example 75]
< 500	< 5000	CCNC(=S)Nc1ccc(CCOC(=O)c2ccc3c(c2)C(C)(C)CCC3(C)C)cc1 [Example 76, 2-(4-{[(ethylamino)carbonothioyl]amino}phenyl)ethyl 5,5,8,8-tetramethyl-5,6,7,8-tetrahydronaphthalene-2-carboxylate]
< 500	< 5000	CCCNC(=S)Nc1ccc(CCOC(=O)c2ccc3c(c2)C(C)(C)CCC3(C)C)cc1 [Example 77]
< 500	< 5000	COCCNC(=S)Nc1ccc(CCOC(=O)c2ccc3c(c2)C(C)(C)CCC3(C)C)cc1 [Example 79]
< 500	< 5000	CC1(C)CCC(C)(C)c2cc(C(=O)OCCc3ccc(NC(=S)NCc4ccco4)cc3)ccc21 [Example 80]
< 500	< 5000	CCNC(=O)Nc1ccc(CCOC(=O)c2ccc3c(c2)C(C)(C)CCC3(C)C)cc1 [Example 81]
< 500	< 5000	CC1(C)CCC(C)(C)c2cc(C(=O)OCCc3ccc(NC(=O)NCc4ccccc4)cc3)ccc21 [Example 84]
< 500	< 5000	COCC(=O)Nc1ccc(CCOC(=O)c2ccc3c(c2)C(C)(C)CCC3(C)C)cc1 [Example 85]
< 500	< 5000	CC1(C(=O)Nc2ccc(CCOC(=O)c3ccc4c(c3)C(C)(C)CCC4(C)C)cc2)CC1 [Example 87]
< 500	< 5000	CC1CC1C(=O)Nc1ccc(CCOC(=O)c2ccc3c(c2)C(C)(C)CCC3(C)C)cc1 (stereo not drawn) [Example 88]
< 500	< 5000	CC1(C)CCC(C)(C)c2cc(C(=O)OCCc3ccc(NC(=O)C4CC4(C)C)cc3)ccc21 (stereo not drawn) [Example 89]
< 500	< 5000	CC1(C)CCC(C)(C)c2cc(C(=O)OCCc3ccc(NC(=O)C4CCOC4)cc3)ccc21 (stereo not drawn) [Example 92]
< 500	< 5000	CCCC(=O)Nc1ccc(CCOC(=O)c2ccc3c(c2)C(C)(C)CCC3(C)C)cc1 [Example 94]
